Laboratory results from patent US20060069132A1, “Azolecarboxamide herbicides” (priority 2004, published 2006).

Columns and labels:
morningglory [1] = experiment: Test B pre-/postemergence herbicide test; assay type: in vivo, Ipomoea coccinea
Summary of the method: (§1)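 Evaluation is visual, comparing treated with control plants on a scale where 0 means no effect and 100 means full control. Treatments were preemergence, or postemergence on seedlings 2–18 cm tall, and held 13–15 days in the greenhouse.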

cocklebur = experiment: Test B pre-/postemergence herbicide test; assay type: in vivo, Xanthium strumarium
Summary of the method: as §1

lambsquarters = experiment: Test B pre-/postemergence herbicide test; assay type: in vivo, Chenopodium album
Summary of the method: (§2)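 Plants compared with untreated controls 13–15 days post-treatment and given a visual 0–100 injury score. Applications: preemergence to seeds; postemergence at 1- to 4-leaf (2–18 cm); paddy species flooded, 2-leaf stage. Vehicle non-phytotoxic, surfactant included.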

large crabgrass [2] = experiment: Test B pre-/postemergence herbicide test; assay type: in vivo, Digitaria sanguinalis
Summary of the method: as §2

blackgrass = experiment: Test B postemergence herbicide test; assay type: in vivo, Alopecurus myosuroides; settings: scale 0 (no effect) to 100 (complete control)
Summary of the method: (§3)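 Each value is a visual 0–100 response rating taken against controls 13 to 15 days after treatment in the greenhouse. Plants received formulated chemical postemergence at the 1- to 4-leaf stage or, in flooded paddy, at the 2-leaf stage.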

Surinam grass = experiment: Test B pre-/postemergence herbicide test; assay type: in vivo, Urochloa decumbens
Summary of the method: as §2

barnyardgrass [3] = experiment: Test A pre-/postemergence herbicide test; assay type: in vivo, Echinochloa crus-galli
Summary of the method: (§4)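 Pre: seeded sandy loam, directed soil spray, compound in non-phytotoxic solvent + surfactant. Post: 1–2-leaf plants (2–10 cm), sprayed to runoff. Greenhouse ~10 d; visual injury vs untreated, 0–100 scale.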

giant foxtail [4] = experiment: Test A pre-/postemergence herbicide test; assay type: in vivo, Setaria faberi
Summary of the method: as §4

barnyardgrass [5] = experiment: Test B pre-/postemergence herbicide test; assay type: in vivo, Echinochloa crus-galli
Summary of the method: as §1

redroot pigweed = experiment: Test A pre-/postemergence herbicide test; assay type: in vivo, Amaranthus retroflexus
Summary of the method: as §4

morningglory [6] = experiment: Test A pre-/postemergence herbicide test; assay type: in vivo, Ipomoea spp.
Summary of the method: as §4

pigweed = experiment: Test B pre-/postemergence herbicide test; assay type: in vivo, Amaranthus retroflexus
Summary of the method: as §2

wild oat = experiment: Test B postemergence herbicide test; assay type: in vivo, Avena fatua; settings: scale 0 (no effect) to 100 (complete control)
Summary of the method: (§5)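 Scale 0–100: zero equals no visible effect, 100 complete control, judged by eye relative to controls. Timing: 13 to 15 days in greenhouse post-treatment. Growth stage at spraying: two leaves (paddy) or one to four leaves, 2–18 cm (postemergence).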

wheat = experiment: Test B postemergence herbicide test; assay type: in vivo, Triticum aestivum; set-up: key to Wheat plant response rating: 0 = no effect, 100 = complete control; settings: scale 0 (no effect) to 100 (complete control)
Summary of the method: as §5

giant foxtail [7] = experiment: Test B pre-/postemergence herbicide test; assay type: in vivo, Setaria faberi
Summary of the method: as §2

ducksalad = experiment: Test B flooded paddy test; assay type: in vivo, Heteranthera limosa; settings: 1000 g ai/ha, visual rating, scale 0 to 100 (0 no effect, 100 complete control), 13 to 15 days
Summary of the method: as §3

velvetleaf [8] = experiment: Test A pre-/postemergence herbicide test; assay type: in vivo, Abutilon theophrasti
Summary of the method: as §4

[9] = system: small flower umbrella sedge; experiment: Test B flooded paddy test; assay type: in vivo, Cyperus difformis; settings: 1000 g ai/ha, visual rating, scale 0 to 100 (0 no effect, 100 complete control), 13 to 15 days
Summary of the method: as §3

rice [10] = experiment: Test B flooded paddy test; assay type: in vivo, Oryza sativa; settings: 1000 g ai/ha, visual rating, scale 0 to 100 (0 no effect, 100 complete control), 13 to 15 days
Summary of the method: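 Formulated test chemicals went onto postemergence plants measuring 2 to 18 cm, at one to four leaves. For the paddy assay, species had reached two leaves. Scoring took place 13–15 days later by eye, relative to untreated plants, using 0 for no effect up to 100 for full control.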

barnyardgrass [11] = experiment: Test B flooded paddy test; assay type: in vivo, Echinochloa crus-galli; settings: 1000 g ai/ha, visual rating, scale 0 to 100 (0 no effect, 100 complete control), 13 to 15 days
Summary of the method: as §3

rice [12] = experiment: Test B pre-/postemergence herbicide test; assay type: in vivo, Oryza sativa; settings: preemergence
Summary of the method: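 Greenhouse pot assay with simultaneous preemergence (treated seed) and postemergence (2–18 cm seedlings) applications of surfactant-containing, non-phytotoxic solvent formulations. Response scored visually 13–15 days later on a 0–100 scale, 100 meaning complete control.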

large crabgrass [13] = experiment: Test A pre-/postemergence herbicide test; assay type: in vivo, Digitaria sanguinalis
Summary of the method: as §4

velvetleaf [14] = experiment: Test B pre-/postemergence herbicide test; assay type: in vivo, Abutilon theophrasti
Summary of the method: as §2

corn = experiment: Test B pre-/postemergence herbicide test; assay type: in vivo, Zea mays
Summary of the method: as §2

[15] = 500 g ai/ha, visual rating 0-100, 0 no effect, 100 complete control, preemergence
[16] = Postemergence, 500 g ai/ha, visual rating after 13 to 15 days, scale 0 (no effect) to 100 (complete control)
[17] = postemergence, 125 g ai/ha, visual rating, scale 0 (no effect) to 100 (complete control)
[18] = preemergence, 125 g ai/ha, 0 to 100 scale, 0 is no effect, 100 is complete control
[19] = Postemergence, 500 g ai/ha, visual rating after 13 to 15 days
[20] = postemergence, 125 g ai/ha, visual rating
[21] = Postemergence, 500 g ai/ha, 0 to 100 scale, 0 no effect, 100 complete control
[22] = Postemergence, 2000 g ai/ha, 0 to 100 scale, 0 no effect, 100 complete control
[23] = Preemergence, 500 g ai/ha, visual rating, 0 to 100 scale (0 no effect, 100 complete control)
[24] = Preemergence, 2000 g ai/ha, 0 to 100 scale, 0 no effect, 100 complete control

SMILES: CCCOC(=O)c1cccc(NC(=O)c2cc(C(C)(C)C)nn2CC)c1C [Compound 90]
- Plant response rating, Morningglory (morningglory [1]; [15]): 10
- Plant response rating, Morningglory (morningglory [1]; [16]): 40
- Morningglory plant response rating (morningglory [1]; [17]): 10
- Plant response rating, Morningglory (morningglory [1]; [18]): 0
- Plant response rating, Cocklebur (cocklebur; [15]): 0
- Plant response rating, Cocklebur (cocklebur; [16]): 60
- Cocklebur plant response rating (cocklebur; [17]): 10
- Plant response rating, Cocklebur (cocklebur; [18]): 0
- Plant response rating, Lambsquarters (lambsquarters; [15]): 90
- Plant response rating, Lambsquarters (lambsquarters; [16]): 50
- Lambsquarters plant response rating (lambsquarters; [17]): 50
- Plant response rating, Lambsquarters (lambsquarters; [18]): 0
- Plant response rating, Crabgrass, Large (large crabgrass [2]; [15]): 70
- Plant response rating, Crabgrass, Large (large crabgrass [2]; [16]): 10
- Crabgrass, Large plant response rating (large crabgrass [2]; [17]): 10
- Plant response rating, Crabgrass, Large (large crabgrass [2]; [18]): 10
- Plant response rating, Blackgrass (blackgrass; [19]): 10
- Blackgrass plant response rating (blackgrass; [20]): 0
- Plant response rating, Surinam Grass (Surinam grass; [15]): 20
- Plant response rating, Surinam Grass (Surinam grass; [16]): 10
- Surinam Grass plant response rating (Surinam grass; [17]): 10
- Plant response rating, Surinam Grass (Surinam grass; [18]): 0
- Barnyardgrass plant response rating (barnyardgrass [3]; [21]): 20
- Plant response rating, Barnyardgrass (barnyardgrass [3]; [22]): 20
- Barnyardgrass plant response rating (barnyardgrass [3]; [23]): 20
- Barnyardgrass plant response rating (barnyardgrass [3]; [24]): 50
- Foxtail, Giant plant response rating (giant foxtail [4]; [21]): 20
- Plant response rating, Foxtail, Giant (giant foxtail [4]; [22]): 20
- Foxtail, Giant plant response rating (giant foxtail [4]; [23]): 25
- Foxtail, Giant plant response rating (giant foxtail [4]; [24]): 60
- Plant response rating, Barnyardgrass (barnyardgrass [5]; [15]): 20
- Plant response rating, Barnyardgrass (barnyardgrass [5]; [16]): 30
- Barnyardgrass plant response rating (barnyardgrass [5]; [17]): 0
- Plant response rating, Barnyardgrass (barnyardgrass [5]; [18]): 10
- Pigweed plant response rating (redroot pigweed; [21]): 20
- Plant response rating, Pigweed (redroot pigweed; [22]): 40
- Pigweed plant response rating (redroot pigweed; [23]): 25
- Pigweed plant response rating (redroot pigweed; [24]): 70
- Morningglory plant response rating (morningglory [6]; [21]): 10
- Plant response rating, Morningglory (morningglory [6]; [22]): 10
- Morningglory plant response rating (morningglory [6]; [23]): 0
- Morningglory plant response rating (morningglory [6]; [24]): 30
- Plant response rating, Pigweed (pigweed; [15]): 80
- Plant response rating, Pigweed (pigweed; [16]): 40
- Pigweed plant response rating (pigweed; [17]): 30
- Plant response rating, Pigweed (pigweed; [18]): 10
- Plant response rating, Oat, Wild (wild oat; [19]): 30
- Oat, Wild plant response rating (wild oat; [20]): 10
- Plant response rating, Wheat (wheat; [19]): 10
- Wheat plant response rating (wheat; [20]): 10
- Plant response rating, Foxtail, Giant (giant foxtail [7]; [15]): 60
- Plant response rating, Foxtail, Giant (giant foxtail [7]; [16]): 10
- Foxtail, Giant plant response rating (giant foxtail [7]; [17]): 10
- Plant response rating, Foxtail, Giant (giant foxtail [7]; [18]): 10
- Ducksalad plant response rating (ducksalad): 30
- Velvetleaf plant response rating (velvetleaf [8]; [21]): 10
- Plant response rating, Velvetleaf (velvetleaf [8]; [22]): 30
- Velvetleaf plant response rating (velvetleaf [8]; [23]): 20
- Velvetleaf plant response rating (velvetleaf [8]; Preemergence, 2000 g ai/ha, visual rating, 0 to 100 scale (0 no effect, 100 complete control)): 35
- Sedge, Umbrella plant response rating [9]: 50
- Rice plant response rating (rice [10]): 10
- Barnyardgrass plant response rating (barnyardgrass [11]): 10
- Plant response rating, Rice (rice [12]; 500 g ai/ha, visual rating 0-100, 0 no effect, 100 complete control): 0
- Plant response rating, Rice (rice [12]; 125 g ai/ha, 0 to 100 scale, 0 is no effect, 100 is complete control): 0
- Crabgrass, Large plant response rating (large crabgrass [13]; [21]): 15
- Plant response rating, Crabgrass, Large (large crabgrass [13]; [22]): 25
- Crabgrass, Large plant response rating (large crabgrass [13]; [23]): 35
- Crabgrass, Large plant response rating (large crabgrass [13]; [24]): 75
- Plant response rating, Velvetleaf (velvetleaf [14]; [15]): 20
- Plant response rating, Velvetleaf (velvetleaf [14]; [16]): 30
- Velvetleaf plant response rating (velvetleaf [14]; [17]): 10
- Plant response rating, Velvetleaf (velvetleaf [14]; [18]): 0
- Plant response rating, Corn (corn; [15]): 20
- Plant response rating, Corn (corn; [16]): 10
- Corn plant response rating (corn; [17]): 10
- Plant response rating, Corn (corn; [18]): 0
